Laboratory results reported in US20050004185A1, “Polyene polyketides, processes for their production and their use as pharmaceuticals” (priority 2003, published 2005).
In brackets after ≈: the same amount, converted by molar mass. Where two headings read alike, the source gives them in different places.

Columns and labels:
OVCAR-3 = test: In vitro cytotoxic efficacy (MTT); format: cell-based; conditions: Homo sapiens, Ovarian, 96 h
DU-145 = test: In vitro cytotoxic efficacy (MTT); format: cell-based; conditions: Homo sapiens, Prostate, 96 h
C. albicans (Calb) = test: MIC broth microdilution assay (NCCLS M27-A); format: cell-based; conditions: Candida albicans, read-out: Minimal Inhibitory Concentrations
HT29 = test: In vitro cytotoxic efficacy (MTT); format: cell-based; conditions: Homo sapiens
A498 = test: In vitro cytotoxic efficacy (MTT); conditions: Homo sapiens, A498, 96 h
C. albicans (Ctro) = test: MIC broth microdilution assay (NCCLS M27-A); format: cell-based; conditions: Candida albicans, read-out: Minimal Inhibitory Concentrations
NCI-H460 = test: In vitro cytotoxic efficacy (MTT); format: cell-based; conditions: Homo sapiens
MDA-MB-231/ATCC = test: In vitro cytotoxic efficacy (MTT); conditions: Homo sapiens, MDA-MB-231, 96 h
PC-3 = test: In vitro cytotoxic efficacy (MTT); conditions: Homo sapiens, PC-3, 96 h
C. glabrata (Cgla) = test: MIC broth microdilution assay (NCCLS M27-A); format: cell-based; conditions: Nakaseomyces glabratus, read-out: Minimal Inhibitory Concentrations
PANC-1 = test: In vitro cytotoxic efficacy (MTT); format: cell-based; conditions: Homo sapiens, Pancreatic, 96 h
S. cerevisiae (Scer) = test: MIC broth microdilution assay (NCCLS M27-A); conditions: Saccharomyces cerevisiae, read-out: Minimal Inhibitory Concentrations
SNB-19 = test: In vitro cytotoxic efficacy (MTT); format: cell-based; conditions: Homo sapiens
A549/ATCC = test: In vitro cytotoxic efficacy (MTT); format: cell-based; conditions: Homo sapiens
LB1319-MEL = test: In vitro cytotoxic efficacy (MTT); format: cell-based; conditions: Melanoma, 96 h
SK-OV3 = test: In vitro cytotoxic efficacy (MTT); format: cell-based; conditions: Homo sapiens
Candida sp. (Cflu) = test: MIC broth microdilution assay (NCCLS M27-A); format: cell-based; conditions: read-out: Minimal Inhibitory Concentrations
MCF7 = test: In vitro cytotoxic efficacy (MTT); format: cell-based; conditions: Homo sapiens
HCT-15 = test: In vitro cytotoxic efficacy (MTT); format: cell-based; conditions: Homo sapiens, Colon, 96 h
HCC-2998 = test: In vitro cytotoxic efficacy (MTT); format: cell-based; conditions: Homo sapiens, Colon, 96 h
SK-MEL-28 = test: In vitro cytotoxic efficacy (MTT); format: cell-based; conditions: Homo sapiens, Melanoma, 96 h
UACC = test: In vitro cytotoxic efficacy (MTT); format: cell-based; conditions: 96 h
NCI/ADR-RES = test: In vitro cytotoxic efficacy (MTT); format: cell-based; conditions: Homo sapiens, Breast, 96 h
SW-620 = test: In vitro cytotoxic efficacy (MTT); format: cell-based; conditions: Homo sapiens, Colon, 96 h
SK-MEL-5 = test: In vitro cytotoxic efficacy (MTT); format: cell-based; conditions: Homo sapiens, Melanoma, 96 h
KM12 = test: In vitro cytotoxic efficacy (MTT); format: cell-based; conditions: Homo sapiens, Colon, 96 h
M14 = test: In vitro cytotoxic efficacy (MTT); format: cell-based; conditions: Homo sapiens, Melanoma, 96 h
SR = test: In vitro cytotoxic efficacy (MTT); format: cell-based; conditions: Homo sapiens, Leukemia, 96 h
786-0 = test: In vitro cytotoxic efficacy (MTT); format: cell-based; conditions: Homo sapiens, Renal, 96 h
SF-539 = test: In vitro cytotoxic efficacy (MTT); format: cell-based; conditions: Homo sapiens, CNS, 96 h
K562 = test: In vitro cytotoxic efficacy (MTT); format: cell-based; conditions: Homo sapiens, Leukemia, 96 h
SF-295 = test: In vitro cytotoxic efficacy (MTT); format: cell-based; conditions: Homo sapiens, CNS, 96 h
T-47D = test: In vitro cytotoxic efficacy (MTT); format: cell-based; conditions: Homo sapiens, T47D, Breast, 96 h
RPMI-8226 = test: In vitro cytotoxic efficacy (MTT); format: cell-based; conditions: Homo sapiens, Leukemia, 96 h
LOX IMVI = test: In vitro cytotoxic efficacy (MTT); format: cell-based; conditions: Homo sapiens, Melanoma, 96 h
COLO 205 = test: In vitro cytotoxic efficacy (MTT); format: cell-based; conditions: Homo sapiens, Colon, 96 h
MOLT-4 = test: In vitro cytotoxic efficacy (MTT); format: cell-based; conditions: Homo sapiens, Leukemia, 96 h
IGROV1 = test: In vitro cytotoxic efficacy (MTT); format: cell-based; conditions: Homo sapiens, IGROV-1, Ovarian, 96 h
CAKI-1 = test: In vitro cytotoxic efficacy (MTT); format: cell-based; conditions: Homo sapiens, Renal, 96 h
OVCAR-4 = test: In vitro cytotoxic efficacy (MTT); format: cell-based; conditions: Homo sapiens, Ovarian, 96 h
BT-549 = test: In vitro cytotoxic efficacy (MTT); format: cell-based; conditions: Homo sapiens, Breast, 96 h
MDA-MB-435 = test: In vitro cytotoxic efficacy (MTT); format: cell-based; conditions: Homo sapiens, Breast, 96 h
SK-MEL-2 = test: In vitro cytotoxic efficacy (MTT); format: cell-based; conditions: Homo sapiens, Melanoma, 96 h
HL-60 (TB) = test: In vitro cytotoxic efficacy (MTT); format: cell-based; conditions: Homo sapiens, Leukemia, 96 h
NCI-H522 = test: In vitro cytotoxic efficacy (MTT); format: cell-based; conditions: Homo sapiens, Non-small cell lung, 96 h
OVCAR-8 = test: In vitro cytotoxic efficacy (MTT); format: cell-based; conditions: Homo sapiens, Ovarian, 96 h
SNB-75 = test: In vitro cytotoxic efficacy (MTT); format: cell-based; conditions: Homo sapiens, CNS, 96 h
U-251 = test: In vitro cytotoxic efficacy (MTT); format: cell-based; conditions: Homo sapiens, CNS, 96 h
OVCAR-5 = test: In vitro cytotoxic efficacy (MTT); format: cell-based; conditions: Homo sapiens, Ovarian, 96 h
EKVX = test: In vitro cytotoxic efficacy (MTT); format: cell-based; conditions: Homo sapiens, Non-small cell lung, 96 h
UACC-257 = test: In vitro cytotoxic efficacy (MTT); format: cell-based; conditions: Homo sapiens, Melanoma, 96 h
SF-268 = test: In vitro cytotoxic efficacy (MTT); format: cell-based; conditions: Homo sapiens, CNS, 96 h
CCRF-CEM = test: In vitro cytotoxic efficacy (MTT); format: cell-based; conditions: Homo sapiens, Leukemia, 96 h
TK-10 = test: In vitro cytotoxic efficacy (MTT); format: cell-based; conditions: Homo sapiens, Renal, 96 h
RXF 393 = test: In vitro cytotoxic efficacy (MTT); format: cell-based; conditions: Homo sapiens, Renal, 96 h
UO-31 = test: In vitro cytotoxic efficacy (MTT); format: cell-based; conditions: Homo sapiens, Renal, 96 h
HOP-92 = test: In vitro cytotoxic efficacy (MTT); format: cell-based; conditions: Homo sapiens, Non-small cell lung, 96 h
HCT-116 = test: In vitro cytotoxic efficacy (MTT); conditions: Homo sapiens, HCT-116, 96 h
SN12C = test: In vitro cytotoxic efficacy (MTT); format: cell-based; conditions: Homo sapiens, Renal, 96 h

Work on `C\C(=C/C=C/C=C/CC/C=C/C(C)C(O)C(C)C(O)/C=C/C=C/C=C/C=C/C=C/C=C/CC(OS(=O)(=O)O)C(C)C(=O)CC(O)CC(O)/C=C/CC(O)CC(O)CC(O)/C=C/CC(O)CC(O)/C=C/CC(O)CC(O)CCCNC(=N)N)C(=O)O` (stereo not shown) [Compound 1] yielded an IC50 (OVCAR-3) of 12 µM, an IC50 (DU-145) of 8 µM and an MIC (C. albicans (Calb); 24 hrs) of 4 µg/mL (≈ 3.28 µM). The IC50 (HT29; HT-29, Colon, HT29, 96 h, MTT, read-out: IC50) was 23 µM, the IC50 (A498) was 13 µM and the MIC (C. albicans (Ctro); C. albicans (Ctro), 24 hrs) was 4 µg/mL (≈ 3.28 µM). The IC50 (NCI-H460; Non-small cell lung, NCI-H460, 96 h, MTT, read-out: IC50) was 13 µM, the IC50 (MDA-MB-231/ATCC) was 12 µM and the IC50 (PC-3) was 10 µM. For the same compound, the MIC (C. glabrata (Cgla); 24 hrs) was 4 µg/mL (≈ 3.28 µM), the IC50 (PANC-1) was 15 µM and the MIC (S. cerevisiae (Scer); 24 h) was 4 µg/mL (≈ 3.28 µM). The IC50 (SNB-19; CNS, SNB-19, 96 h, MTT, read-out: IC50) was 10 µM, the IC50 (A549/ATCC; Non-small cell lung, A549/ATCC, 96 h, MTT, read-out: IC50) was 12 µM and the IC50 (LB1319-MEL) was 11 µM. For the same compound, the IC50 (SK-OV3; SK-OV-3, Ovarian, SK-OV3, 96 h, MTT, read-out: IC50) was 15 µM, the MIC (Candida sp. (Cflu); 24 hrs) was 8 µg/mL (≈ 6.57 µM) and the IC50 (MCF7; Breast, MCF7, 96 h, MTT, read-out: IC50) was 18 µM.

With `C\C(=C/C=C/C=C/CC/C=C/C(C)C(O)C(C)C(O)/C=C/C=C/C=C/C=C/C=C/C=C/CC(O)C(C)C(=O)CC(O)CC(O)/C=C/CC(O)CC(O)CC(O)/C=C/CC(O)CC(O)/C=C/CC(O)CC(O)CCCNC(=N)N)C(=O)O` (stereo not shown) [Compound 2] the IC50 (HCT-15) was 8 µM, the IC50 (HCC-2998) was 0.1 µM and the MIC (C. albicans (Calb); 48 hrs) was 4 µg/mL (≈ 3.51 µM). The IC50 (SK-MEL-28) was 13 µM, the IC50 (UACC) was 8 µM and the IC50 (NCI/ADR-RES) was 24 µM. The IC50 (HT29; HT-29, 96 h) was 4 µM, the IC50 (SW-620) was 1 µM and the IC50 (SK-MEL-5) was 2 µM. The IC50 (A498) was 6 µM, the IC50 (KM12) was 0.8 µM and the IC50 (M14) was 0.5 µM. It also gave an IC50 (SR) of 1 µM, an IC50 (786-0) of 8 µM and an IC50 (SF-539) of 3 µM. It also gave an MIC (C. albicans (Ctro); 48 h) of 4 µg/mL (≈ 3.51 µM), an IC50 (K562) of 8 µM and an IC50 (NCI-H460; NCI-H460, 96 h) of 2 µM. For the same compound, the IC50 (SF-295) was 4 µM, the IC50 (T-47D) was > 25 µM and the IC50 (RPMI-8226) was 6 µM. The IC50 (LOX IMVI) was 6 µM, the IC50 (COLO 205) was 7 µM and the IC50 (MDA-MB-231/ATCC) was 9 µM. For the same compound, the IC50 (MOLT-4) was > 25 µM, the IC50 (IGROV1) was 0.6 µM and the IC50 (CAKI-1) was 2 µM. For the same compound, the IC50 (OVCAR-4) was > 25 µM, the IC50 (BT-549) was 0.9 µM and the IC50 (MDA-MB-435) was 0.9 µM. It also gave an IC50 (SK-MEL-2) of 3 µM, an IC50 (PC-3) of 4 µM and an IC50 (HL-60 (TB)) of 17 µM. It also gave an MIC (C. glabrata (Cgla); 48 hrs) of 4 µg/mL (≈ 3.51 µM), an IC50 (NCI-H522) of 2 µM and an IC50 (OVCAR-8) of 5 µM. The MIC (S. cerevisiae (Scer); 48 h) was 4 µg/mL (≈ 3.51 µM), the IC50 (SNB-75) was 10 µM and the IC50 (SNB-19; SNB-19, 96 h) was > 25 µM. The IC50 (U-251) was 6 µM, the IC50 (A549/ATCC; A549, 96 h) was 7 µM and the IC50 (OVCAR-5) was 6 µM. For the same compound, the IC50 (EKVX) was 8 µM, the IC50 (UACC-257) was 5 µM and the IC50 (SK-OV3; SK-OV-3, 96 h) was > 25 µM. For the same compound, the IC50 (SF-268) was 4 µM, the IC50 (CCRF-CEM) was > 25 µM and the IC50 (TK-10) was 7 µM. For the same compound, the IC50 (RXF 393) was 0.4 µM, the IC50 (UO-31) was 8 µM and the IC50 (HOP-92) was > 25 µM. For the same compound, the IC50 (HCT-116) was 2 µM, the MIC (Candida sp. (Cflu); 48 hrs) was 8 µg/mL (≈ 7.03 µM) and the IC50 (SN12C) was 7 µM. It also gave an IC50 (MCF7; MCF7, 96 h) of 0.3 µM.
